In patent publication US20070186358A1, “Concentrated optical brightener solutions” (priority 2004, published 2007):

Legend:
[1] = Viscosity of concentrated aqueous solution; assay type: physicochemical; conditions: aqueous solution of sodium salt, 0.330 mol/kg, 2.0% sodium chloride; at 20° C.
Description: (§1) A solution of 21.3 parts aniline-2,5-disulphonic acid and 6.7 parts sodium hydroxide in 30 parts water is added to a stirred suspension of 15.5 parts cyanuric chloride in 50 parts ice water. The pH is kept at 6 by the dropwise addition of 30% sodium hydroxide. The mixture is stirred below 10° C. until primary aromatic amine groups can no longer be detected by the diazo reaction. A solution of 14.8 parts 4,4′-diaminostilbene-2,2′-disulphonic acid and 3.2 parts sodium hydroxide in 20 parts water is then added, the pH is adjusted to between 6.5 and 7.5 by the addition of 30% sodium hydroxide and the mixture is stirred at 30° C. until a negative diazo reaction is obtained. A solution of 12.2 parts L-aspartic acid in 22.9 parts 16% sodium hydoxide is added, and the mixture is heated at reflux for 6 hours, the pH being kept at 7.5 to 8.5 by the addition of 30% sodium hydroxide. The aqueous solution so-formed of (2) in the form of its sodium salt, which is approximately 0.167 mol/kg in concentration, is desalinated by membrane filtration and concentrated to 0.330 mol/kg (50% by weight).
(§2) An aqueous solution of (3) in the form of its sodium salt at a concentration of 0.330 mol/kg (51% by weight) is prepared as described in Example 1 but using 13.5 parts L-glutamic acid in place of 12.2 parts L-aspartic acid.

[2] = Storage stability of concentrated aqueous solution (precipitation at 5° C.); assay type: physicochemical; conditions: aqueous solution of sodium salt, 0.330 mol/kg, 2.0% sodium chloride, no solubilizing agent; 2 weeks at 5° C.
Description: as §1, §2

| SMILES | viscosity [1] | precipitation on storage [2] |
| --- | --- | --- |
| O=C(O)CC(Nc1nc(Nc2ccc(/C=C/c3ccc(Nc4nc(Nc5cc(S(=O)(=O)O)ccc5S(=O)(=O)O)nc(NC(CC(=O)O)C(=O)O)n4)cc3S(=O)(=O)O)c(S(=O)(=O)O)c2)nc(Nc2cc(S(=O)(=O)O)ccc2S(=O)(=O)O)n1)C(=O)O (stereo not shown) [Example 1] | 0.23-0.25 Pa.s | no signs of precipitation |
| O=C(O)CCC(Nc1nc(Nc2ccc(/C=C/c3ccc(Nc4nc(Nc5cc(S(=O)(=O)O)ccc5S(=O)(=O)O)nc(NC(CCC(=O)O)C(=O)O)n4)cc3S(=O)(=O)O)c(S(=O)(=O)O)c2)nc(Nc2cc(S(=O)(=O)O)ccc2S(=O)(=O)O)n1)C(=O)O (stereo not shown) [Example 2] | 0.23-0.25 Pa.s | no signs of precipitation |
